Columns and labels:
[1] = test system: Botrytis cinerea; assay: Botrytis cinerea necrosis areas on treated detached tomato leaves; assay type: in vivo, Botrytis cinerea on Solanum lycopersicum; conditions: 100 fM, day 8, control 11.72 mm^2 (FIG. 13)
Protocol: (§1) For the performance of assays on the phytopathogenic Botrytis cinerea and Alternaria alternata fungi, the present inventors used spores of this microorganism obtained from cultures on solid PDA (Potato Dextrose Agar) sporulation substrate. The plates were inoculated with 20 μl of a conidial suspension at a concentration of 1×10^6 spores/ml and incubated for 15 days at 25° C. in the presence of diffused light, so as to obtain complete sporulation. The spores were then collected in 5 ml of sterile water and, in order to remove the mycelium, were filtered through glass wool, washed with sterile distilled water and collected by centrifugation at room temperature. The concentration of spores suitable for inoculation (10^5-10^7 spores/ml) was determined by the serial dilution method using a Burker cell counting chamber for spore counting.
(§2) The assay was carried out on a detached leaf by taking a compound leaf for each treated tomato plant and for each control plant. Each leaflet of the compound leaf was marked with 3 markers in order to guide the subsequent application of the spores and detection of the pathogen developing necrotic areas.
The leaves were treated by applying 2 μl of a composition comprising the peptides PS1-70 and PS1-120 of the invention at a concentration of 100 pM, 100 fM or 1×PBS for the control leaves. After 6 hours, the time necessary for the perception of the peptides, the leaves were detached from the plant and inoculations with 10 μl of spore solution were carried out in the internerve spaces and near the previously marked points. Monitoring was carried out by measuring the necrosis areas (expressed in mm^2) 1, 3, 5, 8 days after inoculation of the pathogen. The necrosis areas recorded on the control leaves were much larger than those detected on plants treated with the peptides of the invention. This difference increased as a function of the time elapsed since inoculation. The resistance inducing effect of the picomolar treatment is already statistically significant from the first day of inoculation of the pathogen up to the eighth day where values of 33 mm^2 were reached on the control leaves, unlike the treated leaves where values not exceeding 18 mm^2 were recorded for both peptides (FIG. 12A).

[2] = test system: Alternaria alternata; assay: Alternaria alternata necrosis areas on treated tomato leaves; assay type: in vivo; conditions: 100 fM, day 8, control 17 mm^2 (FIG. 14B)
Protocol: as §1, §2
The present inventors also performed assays aimed at determining the effects of exogenous application of the peptides of the invention on tomato plants against the development of the necrotrophic Alternaria alternata fungus (FIG. 14).
The positive effect of the treatment was statistically significant from day 1 of inoculation of the pathogen to day 8 where values of 24 mm^2 were reached on the control leaves, unlike the treated leaves where values of 8.4 and 8.0 mm^2 were recorded on leaves treated with the peptides PS1-70 and PS1-120 at a concentration of 100 fM (FIG. 14A); and values of 17 mm^2 were recorded on the control leaves and values of 8.3 mm^2, 7.9 mm^2, 8.9 mm^2, and 7.8 mm^2 were recorded on leaves treated with the peptides PS1-70, SEQ ID NO.8, SEQ ID NO.3 and SEQ ID NO.5, respectively, at a concentration of 100 fM (FIG. 14B).

[3] = test system: CAT2, SAM and APX2 genes; assay: Salt stress gene expression in tomato plants irrigated with 100 fM peptides; assay type: in vivo; conditions: femtomolar
Protocol: The analysis was carried out on the CAT2(A), SAM (B) and APX2 (C) genes. The asterisks indicate the statistical significance of the data by Student's t-test (*p<0.05; **p<0.01; ***p<0.001). […] An experiment was also set up to verify the efficiency of the peptides PS1-70, PS1-120 and SEQ ID NO.5, when administered at femtomolar concentrations, in promoting tolerance to a high salt stress condition.

[4] = test system: Spodoptera littoralis larvae; assay: Bioassay on Spodoptera littoralis larvae fed with peptide-treated tomato leaves; assay type: in vivo; conditions: day 13, femtomolar concentration; for average weight of larvae: control 59 mg (FIG. 11A); for survival rate of larvae: control 100% (FIG. 11B)
Protocol: Briefly, S. littoralis larvae were grown in a climate chamber at 25° C., 70% relative humidity (RH), with a 16-hour light and 8-hour dark photoperiod and fed with an artificial diet until completion of the first moult. For the bioassays, 150 larvae for each thesis were grown on tomato leaves for the entire duration of the second instar to adapt them to the different diet. The newly moulted third-instar larvae up to the moult stage were fed with plants on which a composition comprising peptides PS1-70 and PS1-120 had been applied at 100 pM and 100 fM concentrations in 1×PBS buffer. Larvae fed with plants treated with 1×PBS buffer only were used as a control. Bioassays were carried out under the same environmental conditions, in 32-well plastic trays containing 1.5% (w/v) agar and 0.005% (w/v) methyl parahydroxybenzoate, which are useful for creating a humid environment for maintaining cell turgor of tomato leaves. Each experimental group consisted of 32 larvae. The survival of the larvae was monitored daily, and their weight every other day. […] A significant decrease in the survival of larvae fed with leaves of plants treated with the peptides of the invention compared to those fed with leaves of the control plants was also observed for both assays (FIGS. 10B and 10D). […] The same assay scheme was carried out by the present inventors by feeding S. littoralis larvae with leaves treated with the peptide PS1-70 and with peptides having the sequences SEQ ID NO. 3, 5, and 8 at femtomolar concentration. […] A significant decrease was also observed in the survival of larvae fed with peptide-treated leaves compared to those fed with the control leaves (FIG. 11B). […] 8, SEQ ID NO. 3, and SEQ ID NO. 5 (FIG. 11B).

[5] = Biometric parameters of tomato plants irrigated with peptides; assay type: in vivo; conditions: 100 fM
Protocol: FIG. 20 illustrates the effect of irrigation treatment with the peptides PS1-70, PS1-120 and SEQ ID NO.5 at a concentration of 100 fM on the biometric parameters of the tomato plant. […] The asterisks indicate the statistical significance of the data by Student's t-test (*p<0.05). A few biometric parameters are shown in FIG. 20, measured after 14 days of continuous salt stress (150 mM) and 15 days after irrigation with the peptides PS1-70, PS1-120 and SEQ ID NO.5 at 100 fM concentrations, and the respective controls.

Sequence	necrosis areas [1]	necrosis areas [2]	activation of salt stress-responsive genes ([3]; 8 days after irrigation, 0 mM NaCl (FIG. 18A1, B1, C1))	tolerance to salt / induction of responsive genes ([3]; irrigated 7 days with 150 mM NaCl (FIG. 18A2, B2, C2))	average weight of larvae [4]	survival rate of larvae [4]	root surface (root area) ([5]; 14 days of salt stress 150 mM, 15 days after irrigation (FIG. 20A))	growth (fresh weight) of the aerial part ([5]; absence of salt (FIG. 20B))
DDMQEEPKVKLHHEKG [SEQ ID NO. 5]	6.81 mm^2	7.8 mm^2	able to activate a series of salt stress-responsive genes	more salt-tolerant than the untreated control plants	21 mg	15.62%	greater root surface	able to promote the growth of the aerial part of the plant
DDMQEEPKVKLHHEKGGDEKEKIIEKETPSQDI [SEQ ID NO. 8]	7.67 mm^2	7.9 mm^2			13 mg	15.62%		
EKETPSQDI [SEQ ID NO. 3]	8.89 mm^2	8.9 mm^2			24 mg	43.75%		

Reference: patent US20230270119A1, “BIOSTIMULANT AND BIOPROTECTIVE PEPTIDES AND THEIR USE IN AGRICULTURE” (priority 2020, published 2023)
